Measured values: patent US10124065B2, “Lipids and lipid compositions for the delivery of active agents” (Novartis AG, priority 2013, dated 2018)

Tests used:
human leptin [1] = experiment: Mouse subcutaneous injection of modified synthetic leptin mRNA, human leptin ELISA; assay type: in vivo; settings: human leptin in mouse plasma, 10 μg leptin mRNA
Description: Prior to subcutaneous injection, mouse body weights were recorded and diet weighted, with mice grouped according to their body weights. The mice were manually restrained and placed on a work surface. Their scruffs were pinched and lifted away from the underlying muscle, the space into which was inserted a 25 gauge needle connected with a 1 ml syringe. The syringe plunger was pulled backwards in such a way as to ensure no fluid was drawn into the syringe, and then the desired volume of leptin mRNA was hand injected with moderate pressure and speed. The needle was then withdrawn and the mice returned to their cages.
(§1) 8-9 week old, male C57BL/6 mice were used for the in vivo study. FPLC purified modified synthetic leptin mRNA (SEQ ID NO: 5) in which the uridines were substituted with pseudouridine (N:P molar ratio=8:1) packaged in multiple cationic lipid were diluted in injectable saline at a dose of 10 μg per average group body weight.
On day 0, animals were weighed and sorted according to average body weight. ice were dosed at 9 AM and blood was taken at 9 AM on day 0. Blood was also taken at 9 AM on each of days 1 and 2 and assessed for leptin protein levels. Body weight and food intake were also recorded.
(§2) Human leptin in mouse plasma was measured by ELISA. Antibodies purchased from the R&D Systems duoset (Cat# DY398E, part#840279 for capture antibody and part#840280 for detection antibody) were reconstituted using PBS and titered, again using PBS. The capture antibody was coated at 4 ug/ml in 30 ul/well on a white Nunc® Maxisorp 384 well plate (Cat#460372). After an overnight incubation at room temperature the capture antibody was aspirated and the plate blocked for 2 hours at room temperature with 90 ul/well of KPL milk blocker (Cat#50-82-00). Once the incubation was completed the plate was aspirated and recombinant standards and samples were added to the plate at 30 ul/well for 2 hours at 37° C. while shaking at 600 rpm. Sample/standard dilutions were made using casein sample diluent. Washing/aspiration 3 times with 100 ul/well followed, using Teknova plate wash solution (Cat# P1192). Next, detection antibody was diluted using casein detection antibody diluent to 12.5 ng/ml and added at 30 ul/well for 2 hours room temperature. After this incubation, the plate was washed again and a solution of poly-streptavidin-HRP (Cat#21140) at a 1:1250 dilution in HRP dilution buffer was added to each well (30 ul/well) and incubated for 30 minutes room temperature. A final wash/aspiration removed the HRP solution and a chemiluminescent substrate was added at 30 ul/well (Cat#1859678 & 1859679). The plate was quickly read using a SpectramaxM5 plate reader with a 50 ms integration time. The dynamic range of the ELISA is from 100-2,000 pg/ml (6.25-125 pM) of human leptin. The assay is applicable to plasma from mice, rats and cynomolgus monkeys.

PLK-1 mRNA = experiment: LS411N Xenograft Assay; assay type: in vivo, Nu/Nu mice; settings: percent knock down of PLK-1 mRNA vs control in LS411N tumors, IV 3 mg/kg daily for three days
Description: Female Nu/Nu mice (6-8 weeks old) were implanted subcutaneously with 5×10^6 LS411N cells. Tumor growth was monitored by caliper measurement before treatment initiation. Mice bearing 150-250 mm^3 subcutaneous tumors were randomized and enrolled in the study. The stock siRNA formulations were diluted to […] with PBS for dosing. Animals enrolled in different groups received a single daily bolus IV injection of 3 mg/kg siRNA for three days. Tumors were harvested 24 hours post last injection to assess target gene regulation by qRT-PCR.
Lipid nanoparticles comprising lipid compounds of formula (I) and the PLK1-424 siRNA duplex sequence listed above were tested in the LS411N Xenograft Assay. The results of this assay are given in Table 5 below as a percent knock down of PLK-1 mRNA as compared to the control when administered as a single daily dose for three days at a dose of 3 mg/kg.

human leptin [2] = experiment: Mouse intravenous tail vein injection of modified synthetic leptin mRNA, human leptin ELISA; assay type: in vivo, C57BL/6 mouse; settings: human leptin in mouse plasma, 10 μg leptin mRNA
Description: Before the tail vein injection, mouse body weights were recorded and diet weighted, with mice grouped according to their body weights. Mice were prepared by warming them under a heating lamp for ˜2 minutes, with the mice about 12 inches from heat lamp.
For the tail vein injection procedure, the mice were placed in a restrainer and their tails cleaned with 70% alcohol. A 27 gauge needle (Becton Dickinson, Catalogue #305109) connected with a 1 ml syringe (Becton Dickinson, Catalogue #309659) was inserted into the tail vein, with bevel facing up, and the syringe plunger was pulled backwards to ensure blood is drawn into the syringe. The desired volume of modified synthetic leptin mRNA was injected by hand with moderate pressure and speed. The needle was then withdrawn and bleeding stopped by adding pressure to injection site with gauze.
as §1, with “Single housed, 8-9” for “8-9”, “pseudouridine was packaged in a cationic lipid” for “pseudouridine”, “and then” for “packaged in multiple cationic lipid”
On day 0, animals were weighed and sorted according to average body weight. Mice were dosed, and food intake (FI) was recorded, on each of days 1-7 and days 9, 11, and 16.
as §2, with “leptin.” for “leptin. The assay is applicable to plasma from mice, rats and cynomolgus monkeys.”

[3] = Polydispersity index (PDI) of lipid nanoparticle (dynamic light scattering); assay type: physicochemical; settings: leptin mRNA lipid nanoparticles
Description: Unless indicated otherwise, all PDIs referred to herein are the PDI of the fully formed nanoparticle, as measured by dynamic light scattering on a Malvern Zetasizer. The nanoparticle sample was diluted in phosphate buffered saline (PBS) so that the count rate was approximately 200-400 kcts. The data is presented in Tables 4 and 5 as a weighted average of the intensity measure.

[4] = Particle size of lipid nanoparticle (dynamic light scattering, Malvern Zetasizer); assay type: physicochemical; settings: leptin mRNA lipid nanoparticles
Outline: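 Sizes are average diameters of fully formed nanoparticles measured by dynamic light scattering. Samples were diluted in PBS to a count rate of about 200–400 kcts. Values are intensity-weighted Z-average sizes.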

[5] = Measurement of mRNA encapsulation (Quant-iT Ribogreen); assay type: physicochemical; settings: leptin mRNA in lipid nanoparticles (cationic lipid, DSPC, cholesterol, stealth lipid)
Description: All equipment and disposable supplies were certified free of RNase activity by the manufacturer or rendered RNase free by use of the RNaseZap reagent (LifeTechnologies). mRNA was encapsulated at a cationic lipid amine to mRNA phosphate (N:P) molar ratio of 4:1. Lipids (cationic lipid, DSPC, cholesterol and lipidated PEG or stealth lipid) were dissolved in ethanol. The molar ratios were […], respectively. The mixture was sonicated briefly, then gently agitated for 5 minutes and then maintained at 37° C. until use. mRNA was exchanged into citrate buffer pH 5.8-6.0 by use of Amicon Ultra-15 centrifugal concentrators, and the final concentration was adjusted to 0.5 mg/ml and held at 37° C. until use. An equal volume of lipids in ethanol, mRNA in citrate buffer, and citrate buffer alone were drawn into disposable syringes. Tubing leading from syringes containing lipids and mRNA are attached to the T junction, and tubing leading from the syringe containing citrate buffer alone was paired with the tubing exiting the T-junction over a collection vessel containing a stir bar on an active stir plate. Syringes were placed in a syringe pump set to expel contents at a flow rate of 1 ml per minute.
The pump was activated, and the collected mRNA in lipid nanoparticles was transferred to SnakeSkin dialysis tubing (10,000 MWCO, Thermo Scientific). Material was dialyzed against RNAse- and pyrogen-free 1× phosphate buffered saline overnight at 4° C.
Percent encapsulation of mRNA in lipid nanoparticles was determined using the Quant-iT Ribogreen RNA Assay kit (Life Technologies). The LNP-mRNA suspension was assayed in buffer (mRNA outside the particle), and buffer plus Triton X-100 detergent (total mRNA). The difference calculated was the mRNA inside the particle. A 1000 ng/mL stock from the RNA provided in the kit was prepared and used to generate a standard curve (0 ng/ml, 15.63-1000 ng/ml) in TE and TE+0.75% Triton X-100. LNP-mRNA samples in TE buffer and TE buffer+0.75% Triton X-100 were prepared with appropriate dilution so that reading was in the range of standard curve (400-2,000 fold). In a 384-well plate (Costar non-treated #3573) 0.04 ml of standard (in duplicate) or sample (in triplicate) were added per well. Ribogreen reagent was diluted 240-fold in TE buffer and added 0.06 ml per well. The contents of wells were mixed and fluorescence was measured (excitation=480 nm, emission=520 nm). Background values (no RNA) were subtracted from standard and test sample values and the concentrations of RNA were determined in the samples using the standard curves. The percent encapsulation of the sample was determined by dividing the difference in concentrations between sample+triton and sample in buffer alone by the sample+triton concentration.

[6] = test system: plasma Factor VII enzyme activity; experiment: Mouse Factor VII dosing / Factor VII Activity Assay; assay type: in vivo; settings: percent knock down of plasma Factor VII activity, CD-1 mice, 48 h; for KD FVII 0.03 mg/kg: single IV dose 0.03 mg/kg
Outline: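 Female CD-1 mice (~25 g) received a single IV tail-vein dose of lipid-nanoparticle-formulated Factor VII siRNA (0.3 or 0.03 mg/kg). Plasma taken ~48 h later; FVII activity measured chromogenically against vehicle-control plasma standard curve, reported as % knockdown.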

| PDI [3] | Size (nm) [4] [nm] | % encapsulation [5] [%] | Compound | Leptin expression SC-C57BI/6, 24 h (human leptin [1]) [ng/mL] | LS411 KD 3 × 3 mg/Kg (PLK-1 mRNA; LNP Chol/DSPC/S010 45/44/9/2) [%] | Leptin expression IV-C57BI/6, 24 h (human leptin [2]) [ng/mL] | Leptin expression IV-C57BI/6 (ng/mL), 6 h (human leptin [2]; 6 h) | KD FVII 0.03 mg/kg ([6]; LNP Chol/DSPC/S010 45/44/9/2) [%] | KD FVII 0.3 mg/kg ([6]; single IV dose 0.3 mg/kg, LNP Chol/DSPC/PEG-DMG 45/44/9/2) [%] | LS411 KD 3 × 3 mg/Kg (PLK-1 mRNA; LNP Chol/DSPC/PEG-DSG 45/44/9/2) [%] | KD FVII 0.03 mg/kg ([6]; LNP Chol/DSPC/PEG-DMG 45/44/9/2) [%] |
| --- | --- | --- | --- | --- | --- | --- | --- | --- | --- | --- | --- |
|  |  |  | CCCCC/C=C\C/C=C\CCCCCCCC(=O)OCCCOc1cc(CN(C)C)cc(OCCCOC(=O)CCCCCCC/C=C\C/C=C\CCCCC)c1 [Example 39, (9Z,9′Z,12Z,12′Z)-((5-((dimethylamino)methyl)-1,3-phenylene)bis(oxy))bis(propane-3,1-diyl)bis(octadeca-9,12-dienoate)] | 0.79 | 55 | 10.47 |  |  |  |  |  |
| 0.116 | 140.5 | 91.6 | CCCCCCCCCOC(=O)CCCCCCC(=O)OCc1cc(COC(=O)CCCCCCC(=O)OCCCCCCCCC)cc(CN(C)C)c1 [Example 79, O′^1,O^1-((5-((dimethylamino)methyl)-1,3-phenylene)bis(methylene)) 8-dinonyl dioctanedioate] |  |  |  | 1.36 (6 h) ng/mL |  |  |  |  |
|  |  |  | CCCCCCCCCCCC(=O)OCCCCCCOc1cc(CN(C)C)cc(OCCCCCCOC(=O)CCCCCCCCCCC)c1 [Example 59, ((5-((dimethylamino)methyl)-1,3-phenylene)bis(oxy))bis(hexane-6,1-diyl)didodecanoate] | 1.16 |  | 8.08 |  | 48.24 |  |  |  |
|  |  |  | CCCCCCCC(=O)OCCCCCCCCCCOc1cc(CN(C)C)cc(OCCCCCCCCCCOC(=O)CCCCCCC)c1 [Example 43, ((5-((dimethylamino)methyl)-1,3-phenylene)bis(oxy))bis(decane-10,1-diyl)dioctanoate] | 0.66 | 40 | 13.56 |  |  | 97.4 |  |  |
|  |  |  | CCCCCCCCCC(=O)OCCCCCCCCOc1cc(CN(C)C)cc(OCCCCCCCCOC(=O)CCCCCCCCC)c1 [Example 52, ((5-((dimethylamino)methyl)-1,3-phenylene)bis(oxy))bis(octane-8,1-diyl)bis(decanoate)] | 0.85 | 50 | 21.18 |  | 73.5 |  | 69 | 72.5 |
